One assay addresses T1, Y91R-rPepT1 (Oryctolagus cuniculus, UniProt P36836, Y91R).
T1 construct: expressed in transfected cells; host or cells: Xenopus laevis oocytes injected with cRNA
T1 sequence (P36836 1-707 Y91R): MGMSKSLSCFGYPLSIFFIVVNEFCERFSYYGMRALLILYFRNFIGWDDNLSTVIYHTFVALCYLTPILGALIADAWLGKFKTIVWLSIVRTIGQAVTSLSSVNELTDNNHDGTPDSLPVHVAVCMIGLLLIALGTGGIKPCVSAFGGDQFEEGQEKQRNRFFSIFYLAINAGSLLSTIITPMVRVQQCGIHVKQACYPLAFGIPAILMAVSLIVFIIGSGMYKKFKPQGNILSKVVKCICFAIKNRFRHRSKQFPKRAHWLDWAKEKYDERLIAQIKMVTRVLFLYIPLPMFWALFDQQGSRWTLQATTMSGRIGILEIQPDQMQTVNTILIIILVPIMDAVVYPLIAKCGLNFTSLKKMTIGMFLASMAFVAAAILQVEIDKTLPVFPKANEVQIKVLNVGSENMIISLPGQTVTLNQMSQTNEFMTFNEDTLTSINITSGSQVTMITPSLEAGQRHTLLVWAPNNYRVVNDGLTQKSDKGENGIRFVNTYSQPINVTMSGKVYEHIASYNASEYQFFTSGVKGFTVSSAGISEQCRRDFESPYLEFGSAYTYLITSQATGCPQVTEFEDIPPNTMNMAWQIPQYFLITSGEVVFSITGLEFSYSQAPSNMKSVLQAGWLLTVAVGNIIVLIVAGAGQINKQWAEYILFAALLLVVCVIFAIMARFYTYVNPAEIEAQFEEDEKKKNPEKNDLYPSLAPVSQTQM
Nature of the assay: Competition of [3H]-D-Phe-L-Gln uptake into Xenopus oocytes, Ki. Type of assay: cell-based, rabbit. The conditions noted are these: pHout 7.4; against 0.4 μM [3H]-D-Phe-L-Gln uptake. Here is the method: (§1) rPepT1 constructs were linearised with XbaI (New England Biolabs, UK) and cRNA generated by in vitro transcription (T7 mMessage mMachine, Ambion, Cambridgeshire, UK). Xenopus laevis oocytes were obtained under MS222 anaesthesia (0.2%, w/v) in accordance with the UK Animals (Scientific Procedures) Act, 1986, and maintained at 18 °C in modified Barth's medium (88 mM NaCl, 1 mM KCl, 0.82 mM MgSO4, 2.4 mM NaHCO3, 0.42 mM CaCl2, 10 mM Hepes, 5 mM sodium pyruvate, 50 μg ml^−1 gentamicin (Fluka, Poole, UK), adjusted to pH 7.6 with 1 M NaOH). Transport measurements were performed at least 72 h after micro-injection of oocytes with 27nl cRNA (1 μg/μl), with medium changed daily.
(§2) Uptake of [^3H]-D-Phe-L-Gln (17.4 Ci/mmole, custom synthesised, Cambridge Research Biochemicals, Stockton-on-Tees, UK) was performed as previously described ([Meredith, 2004]). Briefly, 5 oocytes were incubated in 100 μl of uptake medium (95 mM NaCl, 2 mM KCl, 1 mM CaCl2, 0.42 mM MgCl2, 10 mM Tris/Hepes pH 7.4 or Tris/Mes pH 5.5) with tracer (0.4 μM) [^3H]-D-Phe-L-Gln. After incubation, the oocytes were washed sequentially five times in 1 ml of ice-cold 120 mM NaCl solution, lysed individually with 100 μl 2% (w/v) SDS and liquid scintillation counted. As a control non-injected oocytes were also incubated in uptake medium with D-Phe-L-Gln as above.
(§3) The affinity of wild-type and mutant rPepT1 transporters were assessed by competition studies with 0.4 μM [^3H]-D-Phe-L-Gln and Gly-L-Gln present in the uptake medium in concentrations from 0 to 2 mM using the protocol above, and the Ki calculated using the method of [Deves and Boyd (1989)].

For another assay, the target named is T2, Y91Q-rPepT1 (Oryctolagus cuniculus, UniProt P36836, Y91Q).
T2 construct: expressed in transfected cells; host or cells: Xenopus laevis oocytes injected with cRNA
T2 sequence (P36836 1-707 Y91Q): T1 sequence (P36836 1-707 Y91R) with R91Q
Described as above. Type of assay: cell-based, rabbit. As to conditions: pHout 7.4; against 0.4 μM [3H]-D-Phe-L-Gln uptake. Here is the method: as §1, §2, §3

Molecules are shown by their SMILES. Changes are numbered by the printed parent chain. Where a SMILES comes first, the peptide text is derived from it.

As usually defined, the Ki is a dissociation constant, usually derived from enzyme kinetics or from competition with a known ligand.

On to `NCC(=O)N[C@@H](CCC(N)=O)C(=O)O` [Gly-L-Gln] (H-Gly-Gln-OH), for which the figures for the Ki on Y91R-rPepT1 and at Y91Q-rPepT1 were 3 ± 1 µM and 30 ± 5 µM, respectively.

The values above are taken from paper PMC3510438, “The transmembrane tyrosines Y56, Y91 and Y167 play important roles in determining the affinity and transport rate of the rabbit proton-coupled peptide transporter PepT1” (The International Journal of Biochemistry & Cell Biology, 2009).
